According to paper PMC4030805 (Analytical Chemistry, 2014):

Target: biotinylated Bcl-xL immobilized on streptavidin magnetic beads (Homo sapiens, UniProt Q07817)
Assay: AMMP target-binding assay with in vitro translated peptides
Conditions: concentration taken from the HA tag competition assay (Figure 3c)

biotinylated Bcl-xL immobilized on streptavidin magnetic beads, sequence (Q07817 1-209 limits assumed): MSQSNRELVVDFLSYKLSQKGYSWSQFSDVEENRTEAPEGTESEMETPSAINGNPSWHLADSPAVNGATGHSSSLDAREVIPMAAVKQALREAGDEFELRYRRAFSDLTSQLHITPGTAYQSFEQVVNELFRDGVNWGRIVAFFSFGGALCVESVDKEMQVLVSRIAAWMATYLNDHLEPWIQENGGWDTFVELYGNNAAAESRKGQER

- peptide concentration giving robust signal over background: 100 pM
Substance: H-MIETITIYKYKKAADHFSMSMGSGSGSYPYDVPDYA-NH2 [Pep1]
